The record followed here is ChEMBL document CHEMBL1125402, “Conformational effects on the activity of drugs. 13. A revision of previously proposed models for the activation of alpha- and beta-adrenergic receptors” (J Med Chem, 1992).

Test [1] concerns the target T1, Adrenergic receptor alpha-1 (Rattus norvegicus) (UniProt P15823+P23944+P43140). Kind of test: Compound was evaluated for alpha adrenoceptor agonistic activity towards alpha 1 receptor of isolated rat vas deferens (exp 1). Format: functional, tissue-based.
Test [2] deals with T2, Beta-1 adrenergic receptor (Rattus norvegicus, UniProt P18090).
T2 sequence (P18090 whole entry): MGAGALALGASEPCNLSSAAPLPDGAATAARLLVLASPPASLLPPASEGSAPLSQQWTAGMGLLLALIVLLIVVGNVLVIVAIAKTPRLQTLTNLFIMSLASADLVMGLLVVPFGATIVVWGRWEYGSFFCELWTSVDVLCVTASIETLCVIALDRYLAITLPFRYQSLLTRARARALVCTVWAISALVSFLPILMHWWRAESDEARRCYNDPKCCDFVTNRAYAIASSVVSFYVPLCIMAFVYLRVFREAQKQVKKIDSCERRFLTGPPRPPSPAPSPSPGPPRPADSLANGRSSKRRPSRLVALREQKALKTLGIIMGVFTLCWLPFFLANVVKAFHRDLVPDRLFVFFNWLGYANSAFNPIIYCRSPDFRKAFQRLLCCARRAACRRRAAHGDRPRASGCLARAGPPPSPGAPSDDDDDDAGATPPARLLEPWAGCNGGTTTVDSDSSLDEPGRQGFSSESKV
Description: Compound was evaluated for beta adrenergic binding affinity towards Beta-1 adrenergic receptor of rat brain
In test [3] the target is T3, Adrenergic receptor alpha-2 (Rattus norvegicus, UniProt P22086+P19328+P22909).
T3 sequence (P22086 whole entry): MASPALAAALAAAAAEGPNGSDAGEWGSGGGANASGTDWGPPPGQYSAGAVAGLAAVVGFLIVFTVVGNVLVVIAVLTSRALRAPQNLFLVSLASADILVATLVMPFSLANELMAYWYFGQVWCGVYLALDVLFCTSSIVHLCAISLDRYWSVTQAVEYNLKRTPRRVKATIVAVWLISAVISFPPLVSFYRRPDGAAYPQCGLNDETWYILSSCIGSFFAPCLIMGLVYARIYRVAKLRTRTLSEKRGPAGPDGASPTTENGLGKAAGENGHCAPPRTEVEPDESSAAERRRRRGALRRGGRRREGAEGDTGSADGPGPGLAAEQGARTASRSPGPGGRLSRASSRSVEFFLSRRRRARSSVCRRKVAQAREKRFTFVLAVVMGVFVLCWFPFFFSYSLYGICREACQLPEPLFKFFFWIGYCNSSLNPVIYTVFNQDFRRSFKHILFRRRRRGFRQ
T3 sequence (P19328 whole entry): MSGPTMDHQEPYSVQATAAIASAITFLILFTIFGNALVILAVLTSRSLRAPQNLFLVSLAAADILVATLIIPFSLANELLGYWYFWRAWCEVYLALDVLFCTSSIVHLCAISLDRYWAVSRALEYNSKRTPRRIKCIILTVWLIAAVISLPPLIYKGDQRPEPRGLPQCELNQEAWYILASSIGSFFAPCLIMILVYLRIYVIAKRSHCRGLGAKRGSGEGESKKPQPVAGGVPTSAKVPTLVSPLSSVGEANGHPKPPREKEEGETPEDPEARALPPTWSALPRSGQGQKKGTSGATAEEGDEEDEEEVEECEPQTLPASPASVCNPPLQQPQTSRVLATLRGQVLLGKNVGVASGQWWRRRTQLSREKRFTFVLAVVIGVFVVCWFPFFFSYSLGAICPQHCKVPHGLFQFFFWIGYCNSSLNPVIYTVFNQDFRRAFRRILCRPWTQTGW
T3 sequence (P22909 whole entry): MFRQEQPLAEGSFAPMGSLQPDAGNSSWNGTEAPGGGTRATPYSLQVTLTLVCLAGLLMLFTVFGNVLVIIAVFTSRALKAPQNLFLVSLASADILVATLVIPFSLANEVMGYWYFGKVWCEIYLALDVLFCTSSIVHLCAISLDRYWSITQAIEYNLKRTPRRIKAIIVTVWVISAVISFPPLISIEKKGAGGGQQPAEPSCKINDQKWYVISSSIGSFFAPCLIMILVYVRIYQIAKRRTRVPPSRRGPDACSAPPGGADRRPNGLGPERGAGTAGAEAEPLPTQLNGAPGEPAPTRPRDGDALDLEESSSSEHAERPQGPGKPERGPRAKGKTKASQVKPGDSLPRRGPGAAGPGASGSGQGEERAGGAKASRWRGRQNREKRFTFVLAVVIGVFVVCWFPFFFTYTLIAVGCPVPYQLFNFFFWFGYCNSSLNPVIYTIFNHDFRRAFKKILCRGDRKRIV
Briefly: Compound was evaluated for alpha adrenergic binding affinity towards Alpha-2 adrenergic receptor of rat brain.

In test [4] the target is Beta-2 adrenergic receptor (Bos taurus, UniProt Q28044). Kind of test: Compound was evaluated for beta adrenergic binding affinity towards beta-2 receptor of bovine lung.
Chain of Beta-2 adrenergic receptor (Q28044 whole entry): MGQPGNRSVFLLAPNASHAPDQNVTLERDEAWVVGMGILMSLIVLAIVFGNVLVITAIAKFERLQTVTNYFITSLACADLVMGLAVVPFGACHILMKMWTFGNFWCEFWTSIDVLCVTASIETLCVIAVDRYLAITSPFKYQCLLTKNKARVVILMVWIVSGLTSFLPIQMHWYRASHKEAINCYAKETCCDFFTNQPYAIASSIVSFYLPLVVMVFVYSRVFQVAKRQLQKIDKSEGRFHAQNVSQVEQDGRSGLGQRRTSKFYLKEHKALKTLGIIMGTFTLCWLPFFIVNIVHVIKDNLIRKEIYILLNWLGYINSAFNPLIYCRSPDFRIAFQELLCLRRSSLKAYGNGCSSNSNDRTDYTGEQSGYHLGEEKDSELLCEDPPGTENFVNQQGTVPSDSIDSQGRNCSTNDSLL
The target in test [5] is T1, Adrenergic receptor alpha-1 (Rattus norvegicus). Briefly: Compound was evaluated for alpha adrenoceptor agonistic activity towards Alpha-1 adrenergic receptor of isolated rat vas deferens (exp 2). Format: functional, tissue-based.
Test [6] has as its target Beta-2 adrenergic receptor (Cavia porcellus) (UniProt Q8K4Z4).
Test [7] has as its target Adrenergic receptor alpha-2 (Homo sapiens) (UniProt P08913+P18825+P18089). The note with it: Cavia porcellus; Ileum.
Description: Intrinsic activity was expressed as the ratio between maximal response elicited by compound and that elicited by full agonist NE towards Alpha-2 adrenergic receptor of isolated guinea pig ileum
Test [8] concerns the target Beta-1 adrenergic receptor (Cavia porcellus) (UniProt B0FL73).
Description: Intrinsic activity was expressed as the ratio between maximal response elicited by compound and that elicited by full agonist ISO towards Beta-1 adrenergic receptor of isolated guinea pig atria
In test [9] the target is T4, Adrenergic receptor alpha-1 (Rattus norvegicus, UniProt P15823+P23944+P43140).
T4 sequence (P15823 whole entry): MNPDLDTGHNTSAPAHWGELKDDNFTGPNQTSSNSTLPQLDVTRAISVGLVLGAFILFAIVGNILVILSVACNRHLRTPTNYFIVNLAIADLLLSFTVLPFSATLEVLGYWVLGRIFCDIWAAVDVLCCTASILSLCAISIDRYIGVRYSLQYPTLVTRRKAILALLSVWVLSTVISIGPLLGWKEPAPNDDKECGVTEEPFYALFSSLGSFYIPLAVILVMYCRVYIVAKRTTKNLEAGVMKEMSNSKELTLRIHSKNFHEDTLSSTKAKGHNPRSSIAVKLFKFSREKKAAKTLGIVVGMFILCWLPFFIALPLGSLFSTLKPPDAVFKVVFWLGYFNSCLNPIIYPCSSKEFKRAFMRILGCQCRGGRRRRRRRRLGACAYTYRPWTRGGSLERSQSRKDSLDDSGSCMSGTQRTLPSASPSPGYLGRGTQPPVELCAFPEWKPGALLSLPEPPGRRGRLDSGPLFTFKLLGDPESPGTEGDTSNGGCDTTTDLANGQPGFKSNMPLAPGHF
T4 sequence (P23944 whole entry): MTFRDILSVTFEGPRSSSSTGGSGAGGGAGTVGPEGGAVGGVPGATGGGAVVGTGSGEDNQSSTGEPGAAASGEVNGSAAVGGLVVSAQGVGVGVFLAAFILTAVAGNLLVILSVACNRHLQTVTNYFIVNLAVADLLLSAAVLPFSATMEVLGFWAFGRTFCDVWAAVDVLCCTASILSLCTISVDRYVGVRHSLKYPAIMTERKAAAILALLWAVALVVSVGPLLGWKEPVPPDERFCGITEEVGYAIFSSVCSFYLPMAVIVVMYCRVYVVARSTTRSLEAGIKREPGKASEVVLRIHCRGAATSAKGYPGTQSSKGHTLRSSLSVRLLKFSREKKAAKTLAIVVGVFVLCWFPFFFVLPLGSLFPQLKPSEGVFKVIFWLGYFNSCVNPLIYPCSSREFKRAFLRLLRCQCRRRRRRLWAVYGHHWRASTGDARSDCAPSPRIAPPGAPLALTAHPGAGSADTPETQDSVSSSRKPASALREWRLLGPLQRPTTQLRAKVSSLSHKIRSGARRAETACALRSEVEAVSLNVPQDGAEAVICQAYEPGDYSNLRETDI
T4 sequence (P43140 whole entry): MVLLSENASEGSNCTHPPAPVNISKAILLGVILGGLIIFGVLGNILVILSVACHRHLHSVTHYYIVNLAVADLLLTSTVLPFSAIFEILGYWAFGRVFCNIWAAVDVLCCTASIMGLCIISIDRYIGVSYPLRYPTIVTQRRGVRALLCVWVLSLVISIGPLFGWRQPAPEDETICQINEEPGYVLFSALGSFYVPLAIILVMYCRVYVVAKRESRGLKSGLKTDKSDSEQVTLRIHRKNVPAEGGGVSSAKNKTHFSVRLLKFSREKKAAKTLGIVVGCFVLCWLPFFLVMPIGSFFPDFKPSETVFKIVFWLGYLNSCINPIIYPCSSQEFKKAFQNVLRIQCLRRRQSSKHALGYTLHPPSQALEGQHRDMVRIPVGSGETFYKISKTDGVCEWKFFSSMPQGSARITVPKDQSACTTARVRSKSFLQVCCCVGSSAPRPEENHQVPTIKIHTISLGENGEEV
Briefly: Binding affinity towards Alpha-1 adrenergic receptor of rat brain.

The target of test [10] is T1, Adrenergic receptor alpha-1 (Rattus norvegicus). Kind of test: Compound was evaluated for alpha adrenoceptor agonistic activity towards alpha 1 receptor of isolated rat vas deferens. Format: functional, tissue-based.
Test [11] addresses Beta-1 adrenergic receptor (Cavia porcellus) (UniProt B0FL73). Briefly: Compound was evaluated for beta adrenoceptor agonistic activity towards Beta-1 adrenergic receptor of isolated guinea pig atria (exp 1). Format: functional.
For test [12], the target named is Beta-2 adrenergic receptor (Cavia porcellus) (UniProt Q8K4Z4). Briefly: Compound was evaluated for beta adrenoceptor agonistic activity towards beta 2 receptor of isolated guinea pig tracheal strip (exp 1 2). Format: functional.
Chain of Beta-2 adrenergic receptor (Cavia porcellus) (Q8K4Z4 whole entry, looked up): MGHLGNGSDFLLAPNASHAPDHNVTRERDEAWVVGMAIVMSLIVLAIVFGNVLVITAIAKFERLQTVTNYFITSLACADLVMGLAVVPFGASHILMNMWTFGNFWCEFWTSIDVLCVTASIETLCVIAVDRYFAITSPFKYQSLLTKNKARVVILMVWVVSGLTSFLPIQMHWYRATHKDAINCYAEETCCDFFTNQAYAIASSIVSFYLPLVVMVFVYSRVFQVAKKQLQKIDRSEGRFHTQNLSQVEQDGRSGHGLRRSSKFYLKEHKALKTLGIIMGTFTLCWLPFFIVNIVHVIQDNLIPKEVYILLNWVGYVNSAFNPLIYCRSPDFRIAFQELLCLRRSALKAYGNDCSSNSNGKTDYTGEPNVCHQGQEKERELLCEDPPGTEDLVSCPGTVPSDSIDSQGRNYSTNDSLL
Test [13] has as its target Beta-1 adrenergic receptor (Cavia porcellus) (UniProt B0FL73). Kind of test: Compound was evaluated for beta adrenoceptor agonistic activity towards Beta-1 adrenergic receptor of isolated guinea pig atria (exp 2). Format: functional.
Test [14] addresses Adrenergic receptor alpha-1 (Homo sapiens) (UniProt P35348+P25100+P35368). Briefly: Compound was evaluated for alpha adrenoceptor agonistic activity towards Alpha-1 adrenergic receptor of isolated rat vas deferens. Format: functional, tissue-based. The following applies: Oryctolagus cuniculus.
Test [15] addresses Beta-1 adrenergic receptor (Cavia porcellus) (UniProt B0FL73). Briefly: Compound was evaluated for beta adrenoceptor agonistic activity towards beta 1 receptor of isolated guinea pig atria (exp 1). Format: functional.
Test [16] deals with T1, Adrenergic receptor alpha-1 (Rattus norvegicus). Briefly: Compound was evaluated for alpha adrenoceptor agonistic activity towards Alpha-1 adrenergic receptor of isolated rabbit aortic strips (exp 2). Format: functional.
Test [17] concerns the target Beta-2 adrenergic receptor (Cavia porcellus) (UniProt Q8K4Z4). Kind of test: Compound was evaluated for beta adrenoceptor agonistic activity towards Beta-2 adrenergic receptor of isolated guinea pig tracheal strip (exp 1 2). Format: functional.
Test [18] has as its target Beta-1 adrenergic receptor (Cavia porcellus) (UniProt B0FL73). Briefly: Intrinsic activity was expressed as the ratio between maximal response elicited by compound and that elicited by full agonist ISO towards beta 1 receptor of isolated guinea pig atria. Format: functional.
Test [19] has as its target T2, Beta-1 adrenergic receptor. Kind of test: Compound was evaluated for beta adrenergic binding affinity towards beta-1 receptor of rat brain.
Test [20] deals with Beta-1 adrenergic receptor (Cavia porcellus) (UniProt B0FL73). Briefly: Compound was evaluated for beta adrenoceptor agonistic activity towards beta 1 receptor of isolated guinea pig atria. Format: functional.
Chain of Beta-1 adrenergic receptor (Cavia porcellus) (B0FL73 1-467): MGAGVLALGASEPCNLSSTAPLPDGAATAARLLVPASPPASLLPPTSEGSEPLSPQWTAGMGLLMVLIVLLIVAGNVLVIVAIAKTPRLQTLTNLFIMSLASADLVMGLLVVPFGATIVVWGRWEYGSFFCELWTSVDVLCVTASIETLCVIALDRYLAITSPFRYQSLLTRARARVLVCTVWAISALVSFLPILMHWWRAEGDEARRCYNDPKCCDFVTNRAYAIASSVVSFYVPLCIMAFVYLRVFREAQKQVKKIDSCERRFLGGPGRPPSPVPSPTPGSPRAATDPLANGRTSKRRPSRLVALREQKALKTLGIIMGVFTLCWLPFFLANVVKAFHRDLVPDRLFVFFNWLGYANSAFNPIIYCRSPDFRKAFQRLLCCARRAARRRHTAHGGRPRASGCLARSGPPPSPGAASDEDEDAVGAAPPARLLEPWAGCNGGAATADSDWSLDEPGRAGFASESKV

With `Oc1ccc(C2(O)CCCNC2)cc1O` (configuration not stated), the pD2 stood at 4.76 in [1], 4.44 in test [6], 5.56 in test [7] and 3.81 in [8]. For the same compound, the Ki is greater than 100 µM in test [2], 500 nM in test [3], greater than 100 µM in [4] and 15 µM in test [9]. This compound also returned an Intrinsic activity in test [5] of 0.95.
In the case of `N[C@@H]1CCc2c(ccc(O)c2O)[C@H]1O`, the Ki in [2] is 8 µM; in test [3], 2900 nM; in [4], 0.12 µM; in [9], greater than 100 µM. Further, the pD2 in test [10] was 3.7; in test [11], 6.74; in test [12], 7.49; in test [14] it was less than 3.5; in test [7], 5.32; in [15] it was 4.96. Also, in test [17], the pD2 came to 7.78. Further, the Intrinsic activity came to 1 in test [13] and 0.87 in test [16].
For `Oc1ccc(C2CNCCO2)cc1O` (configuration not stated), the pD2 stood at 4.88 in test [1], 4.76 in [6], 7.34 in test [7] and 5.31 in test [20]. Moreover, the Ki was 26 nM in test [3], 9.2 µM in test [4], 15 µM in test [19] and 7.4 µM in [9]. Also, the Intrinsic activity in test [5] and in [18] was 0.91 in each case.
